Laboratory results as given in PMC4402683, “FIBT versus florbetaben and PiB: a preclinical comparison study with amyloid-PET in transgenic mice” (EJNMMI Research, 2015).

How the values were obtained:
Aβ aggregates [1] = conditions: post mortem AD brain homogenates; cited from earlier work
Aβ deposits = experiment: Ex vivo autoradiography, cortex/cerebellum uptake ratio; format: in vivo, mouse; conditions: n ≥ 3
Procedure: In the present study, ex vivo autoradiography of [^18F]FIBT and [^18F]Florbetaben (Figure SI-1) were performed following a published procedure (Manook et al., 2012).
Figure SI-1. [^18F]FIBT and [^18F]Florbetaben autoradiography and cortex/ cerebellum uptake ratio (n≥ 3). Images of digital ex vivo autoradiography of a 12 µm thick axial section of age- and gender matched control (A and C) and APP/PS1 tg mouse brain (B and D). [^18F]FIBT (A and B), and [^18F]Florbetaben (C and D).

Aβ plaques = experiment: Small animal PET imaging in APP/PS1 tg and control mice (cortex + hippocampus-to-cerebellum PET ratio); format: in vivo, mouse; conditions: for Mean PET ratio (SUVR ± SD), cortex + hippocampus to cerebellum: 36 to 45 min; for SUVRtg/SUVRctl (tg/ctl): ratio of APP/PS1 tg to control mice SUVR
Procedure: Inhalation anesthesia with isoflurane was used and the eyes of the animals were protected with dexpanthenol eye ointment. Anesthesia was initiated 15 min ahead of experiments by placing the animal in a cage ventilated with oxygen (3.5 L/min) containing 3% isoflurane. Throughout the experiments, anesthesia was maintained by adjusting the isoflurane content (0.6% to 2%) to ensure a respiratory rate in the range 80 to 100/min. For i.v. injection, we inserted a tailored catheter into the lateral tail vein. Simultaneously with a slow bolus injection of 50 to 200 μL of tracer solution, we started the PET with scan duration of 45 min in 3D list mode on a Siemens Inveon system (axial field-of-view of 12.7 cm with a bore diameter of 12 cm, approximately 1.4 mm full-width-at-half-maximum spatial resolution; Siemens Healthcare, Erlangen, Germany). After tracer injection, we flushed the catheter with 50 to 100 μL of isotonic sodium chloride solution. During the scan, a heating pad prevented hypothermia. The radioactivity in the syringe was measured immediately before and after injection with a Capintec CRC® 15R (Capintec Inc, 6 Arrow Road Ramsey, NJ, USA) dose calibrator.
Based on our experience, variance of macroscopic brain anatomy is very low across mice with the same genetic background. Therefore, the creation of a MRI template was done by manual co-registration of all MR images based on prominent brain structures and the overall cortical contour and calculation of a mean image (Pmod 3.3, Pmod Technologies, Zurich, Switzerland). Structures outside of the brain were not considered in the manual co-registration process. Two major volume-of-interests (VOIs) were defined on the MRI template, one comprising the full cortex including hippocampus, the other comprising the full cerebellum. The same VOIs were then used for reading out co-registered PET data of a mean image of the final 10 min of the scan (minute 36 to 45). The VOIs were chosen based on previous findings in a voxel-based analysis of cerebral PiB uptake and its correlation with the underlying Aβ pathology in this mouse model. PET data was normalized and corrected for decay and dead time. The images were reconstructed by means of filtered back-projection (FBP), using a ramp filter with a cutoff at the Nyquist frequency into 45 frames (45 × 60 s). The image volume consisted of 128 × 128 × 159 voxels, each of a size of 0.78 × 0.78 × 0.80 mm. The PET images were manually co-registered with the MRI template. This was done by using the wash-in phase of the tracer to identify the brain contour for alignment with the MRI template. We scaled the PET images to percentage of injected dose per cubic centimeter. We then applied these VOIs to the co-registered PET images and exported the VOI values to Microsoft Excel 2010 in order to calculate cortex + hippocampus-to-cerebellum ratios (further referred to as PET ratios).
We tested the tg/ctl ratios for significance. First, we performed a one-way ANOVA between the three groups showing significance.

Aβ aggregates [2] = target: Aβ aggregates; parameters: method as in PMID 24900362; conditions: versus [^3H]PiB; cited from earlier work
[3] = Lipophilicity (log Doct/PBS) by partition between 1-octanol and PBS; format: physicochemical; conditions: 1-octanol/PBS pH 7.4, mean ± SD, N = 6
Procedure: Lipophilicity of the employed compounds was determined by a conventional partition method between 1-octanol and phosphate buffered saline (PBS), pH 7.4. The 1-octanol was saturated with PBS before use. Briefly, the no-carrier-added tracers, contained in 0.2 mL PBS, were added 0.2 mL of 1-octanol in a 1.5-mL polypropylene Eppendorf vial. The vial was sealed and vigorously shaken at room temperature for 5 min. The mixture was then centrifuged at 3,000 g for 10 min. A 100 μL aliquot from each of the two phases was drawn and their radioactivity content was determined in a NaI (Tl) well-type detector. The log Doct/PBS was calculated as follows: log Doct/PBS = log (radioactivity concentration in the 1-octanol phase/radioactivity concentration in the PBS phase). The reported values represent the mean of six independent measurements.

[4] = Ex vivo brain uptake studies in BALB/c mice; parameters: species or system mouse; conditions: BALB/c mice without Aβ pathology, compared to [^18F]FIBT
Procedure: Ex vivo brain uptake studies were performed in male BALB/c mice (mean ± SD body weight: 23 ± 2 g). […] Groups of mice were killed at 5 and 30 min p.i. Radioactivity of weighted brain samples was measured in a γ-counter (Wallac 1480-011 Automatic Gamma Counter, PerkinElmer, Waltham, MA, USA). Data are expressed as percent of the injected dose per gram tissue (% I.D./g; mean ± SD, N = 5).

[5] = APP/PS1 tg mice (N = 4), 24-month-old

SMILES	Kd (Aβ aggregates [1])	Ctx/Clb ratio (Aβ deposits; APP/PS1 tg mouse brain)	Ctx/Clb ratio (Aβ deposits; Ctl mouse brain)	Mean PET ratio (SUVR ± SD), cortex + hippocampus to cerebellum (Aβ plaques; [5])	Mean PET ratio (SUVR ± SD), cortex + hippocampus to cerebellum (Aβ plaques; C57BL6/J control mice (N = 3))	SUVRtg/SUVRctl (tg/ctl) (Aβ plaques)	Ki (Aβ aggregates [2])	Log D oct/PBS [3]	logD at 5 min ([3]; read-out: Log D oct/PBS)	Initial brain uptake ([4]; 5 min p.i.)	Brain tracer retention ([4]; 30 min p.i.)
CNc1ccc(-c2cn3c(n2)sc2cc(OCC[18F])ccc23)cc1 [[^18F]FIBT, 2-(p-methylaminophenyl)-7-(2-[^18F]fluoroethoxy)imidazo[2,1-b]benzothiazole]	0.7 ± 0.2 nM	4.7 ± 0.3	1.1 ± 0.1	1.68 ± 0.15	0.95 ± 0.02	1.78 ± 0.16	2.1 ± 0.8 nM	1.92 ± 0.06			
CNc1ccc(/C=C/c2ccc(OCCOCCOCCF)cc2)cc1 [[^18F]florbetaben, florbetaben]	6.7 ± 0.3 nM	2.0 ± 0.3	1.3 ± 0.1	1.35 ± 0.06	0.90 ± 0.01	1.50 ± 0.06			1.58 ± 0.13	lower initial uptake	higher tracer retention
CNc1ccc(-c2nc3ccc(O)cc3s2)cc1 [[^11C]PiB, Pittsburgh compound B]						2.11 ± 0.24					
